{
  "source": "paper PMC4861463",
  "about": "“A Molecular Switch Abrogates Glycoprotein 100 (gp100) T-cell Receptor (TCR) Targeting of a Human Melanoma Antigen” (The Journal of Biological Chemistry, 2016)",
  "key": {"[1]": {"test_system": "gp100 TCR-transduced CD8+ T-cells", "assay": "MIP-1β production by ELISA after stimulation with peptide-pulsed T2 target cells", "assay_type": "cell-based, Human", "conditions": "peptide titration; 6 × 10^4 T2 cells pulsed 1 h + 3 × 10^4 T-cells, overnight; ELISA of supernatant; duplicate; Fig. 6A"}, "[2]": {"test_system": "gp100 TCR-transduced CD8+ T-cells", "assay": "4-h 51Cr release cytotoxicity assay against peptide-pulsed T2 targets", "assay_type": "cell-based, Human", "conditions": "37 °C, effector/target ratio 5, 51Cr-labelled T2 cells, peptide titration, duplicate, Fig. 6B"}, "[3]": {"target": "gp100 TCR (TRAV17 TRBV19)", "assay": "SPR affinity analysis of gp100 TCR binding to HLA-A*0201-peptide complexes", "parameters": "species or system Human", "conditions": "SPR equilibrium analysis, triplicate; for gp100 TCR (TRAV17 TRBV19), affinity KD: biotinylated HLA-A*0201-peptide complex (500–600 RU) on streptavidin CM5 chip, 9–10 serial dilutions of soluble TCR"}, "[4]": {"target": "PMEL17 TCR (TRAV21 TRBV7-3)", "assay": "SPR affinity analysis of PMEL17 TCR binding to HLA-A*0201-peptide complexes", "parameters": "species or system Human", "conditions": "SPR equilibrium analysis, triplicate; for PMEL17 TCR (TRAV21 TRBV7-3), affinity KD: biotinylated HLA-A*0201-peptide complex (500–600 RU) on streptavidin CM5 chip, 9–10 serial dilutions of soluble TCR"}, "[5]": {"test_system": "gp100-specific TCR-transfected human T-cells", "conditions": "cited from earlier work", "from_the_text": "Thus, in order to study the individual contribution of the peptide residues invo ... || We also provide insight into the role of each residue in gp100^280–288 during TCR recognition by performing an alanine scan mutagenesis with two different gp100^280–288-specific αβTCRs. […] These observations are consisten ..."}},
  "note": "“Also recorded” adds a separate entry of the source.",
  "data": [
    {"sequence": "YLAPGPVTA [YLE-3A]", "values": [
      {"measurement": "MIP-1β production", "setting": "[1]", "value": "No MIP-1β production"},
      {"measurement": "specific lysis of peptide-pulsed target cells", "setting": "[2]", "value": "no cytotoxic T lymphocyte-mediated lysis"},
      {"measurement": "gp100 TCR (TRAV17 TRBV19), affinity KD", "setting": "[3]", "value": "No binding"},
      {"measurement": "gp100 TCR (TRAV17 TRBV19), affinity KD", "setting": "[3]; listed as A2-YLE-3A", "value": "completely abrogated binding"},
      {"measurement": "PMEL17 TCR (TRAV21 TRBV7-3), affinity KD", "setting": "[4]", "value": "complete absence of measurable binding; also recorded: No binding"},
      {"measurement": "PMEL17 TCR (TRAV21 TRBV7-3), affinity KD", "setting": "[4]; listed as A2-YLE-3A", "value": "completely abrogated binding"},
      {"measurement": "agonist activity for a different gp100-specific TCR", "setting": "[5]", "value": "null agonist"}
    ]},
    {"sequence": "YLEPAPVTA [YLE-5A]", "values": [
      {"measurement": "MIP-1β production", "setting": "[1]", "value": "No MIP-1β production"},
      {"measurement": "specific lysis of peptide-pulsed target cells", "setting": "[2]", "value": "no cytotoxic T lymphocyte-mediated lysis"},
      {"measurement": "Kd", "setting": "[3]; read-out: gp100 TCR (TRAV17 TRBV19), affinity KD, biotinylated HLA-A*0201-peptide complex on streptavidin CM5 chip", "value": "> 1000", "unit": "µM"},
      {"measurement": "Kd", "setting": "[4]; read-out: PMEL17 TCR (TRAV21 TRBV7-3), affinity KD, biotinylated HLA-A*0201-peptide complex on streptavidin CM5 chip", "value": "> 1000", "unit": "µM"}
    ]}
  ]
}
